Source: US7045311B2, “Whole cell assay systems for cell surface proteases” (Monogram Biosciences, Inc., priority 2001, dated 2006)
“Also recorded” adds a separate entry of the source.

How the values were obtained:
Assay type in all cases: cell-based
ADAM 17 = biological target: T1, ADAM 17 (Homo sapiens, UniProt P78536); test: Whole cell ADAM 17 assay: cleavage of TNF-α-FL by THP-1 cells, capillary electrophoresis; conditions: for formation of TNF-α-FL cleavage product (ADAM 17 activity): TNF-α-FL substrate, reagent added to the assay
T1 construct: endogenous in cells; host or cells: THP-1 cells (whole, live)
Method: A substrate for a cell surface protease, typically an ADAM, or preferably a plurality of substrates for different proteases, each having a distinct detectable label, is added to a live cell suspension in a buffer. Typically, about 1.5×10^5 cells are used in 50 μL medium. […] The cells are washed three times on ice with buffer (lacking the protein and anti-proteases noted below) before use. A suitable buffer consists of 50 mM HEPES (pH 7.2), 150 mM NaCl, 2 mM MgCl2, 0.1% human serum albumin (HSA), with serine and thiol protease inhibitor cocktail (Roche Diagnostics). Depending on the peptide, nonspecific binding may be blocked by addition of a protein selected from human serum albumin (HSA), bovine serum albumin (BSA), casein (CAS), gamma globulins (GG), and fetal bovine serum (FBS).
All component additions are done on ice, and the tubes are then transferred to a temperature controlled water bath for incubation. The assay mixture is incubated at a fixed temperature for a fixed time, e.g., 37° C. for 1 hr. Following incubation, the tubes are removed from the incubator and placed again on ice.
For experiments employing additional reagents, such as a GPCR agonist or a protein kinase C stimulator such as PMA (phorbol myristate acetate), the additional reagent is added at the beginning of the incubation period.
A suitable separation medium consists of 1% PEO in 50 mM HEPES (pH 7.2). […] In a typical separation, detection occurs at 5 mm down from the injection site (cross), an argon-ion laser is used as the excitation source, PMT is typically set at 600V to 900V, and gain is set to 5 μA/V at a frequency of 10 Hz. The 10× objective is used, and the sampling rate is 200/sec. Well volumes are typically 2 μL.
For peak analysis, time normalized peak areas for peptide cleavage products are divided by time normalized fluorescein (or aminomethyl fluorescein) peak areas to arrive at the product/fluorescein normalized area ratios.
A TNF-α peptide fragment, known to be a substrate for ADAM 17, was labeled at the N-terminus with fluorescein. […] After a one-hour incubation, aminomethyl fluorescein was added as an electrophoretic marker, and the reaction supernatant was separated by capillary electrophoresis.

ADAM 10 [1] = test: Whole cell ADAM 10 assay in HEK-293 cells
Method: (§1) For experiments involving GPCR's, adherent cells are plated into 96-well plates at 5×10^4 cells/well and serum starved for 18–24 hr prior to use. A suitable buffer comprises 10 mM HEPES (pH 7.2), 1× HANKS, 0.1% human serum albumin (HSA), and serine/thiol protease inhibitor cocktail (Roche Diagnostics). Cells are washed three times with the HANKS-HEPES buffer, lacking protein and anti-protease, prior to use.
(§2) The products of the assays are conveniently analyzed by capillary electrophoresis on a microfluidic LabCard™ (ACLARA Biosciences, Inc.). Typically, a LabCard™ containing a 64-channel array is used, but no special changes are needed to run the assay on a 96- or 32-channel card, or other configuration.
(§3) The configuration of channels for each separation on a LabCard is shown schematically in FIG. 13. The channel network may be a double-T network as shown or a cross network, i.e. where wells 110 and 114 in the figure are directly opposed. A suitable separation medium consists of 1% PEO in 50 mM HEPES (pH 7.2). In a typical separation, sample is injected from well 110 to well 114 at an injection voltage of 550V for e.g. 35 sec. Separation is carried out from well 104 to well 106 for e.g. 20 sec., with the voltages of 0V, 380V, 800V, and 380V in wells 104, 110, 106, and 114, respectively, resulting in a field strength of 455V/cm. […]

ADAM 10 [2] = test: Whole cell ADAM 10 assay: cleavage of CD40L-FL by Rat-1 cells with GPCR ligands; conditions: CD40L-FL substrate
Method: as §1, §2, §3

T1 sequence (P78536 215-824): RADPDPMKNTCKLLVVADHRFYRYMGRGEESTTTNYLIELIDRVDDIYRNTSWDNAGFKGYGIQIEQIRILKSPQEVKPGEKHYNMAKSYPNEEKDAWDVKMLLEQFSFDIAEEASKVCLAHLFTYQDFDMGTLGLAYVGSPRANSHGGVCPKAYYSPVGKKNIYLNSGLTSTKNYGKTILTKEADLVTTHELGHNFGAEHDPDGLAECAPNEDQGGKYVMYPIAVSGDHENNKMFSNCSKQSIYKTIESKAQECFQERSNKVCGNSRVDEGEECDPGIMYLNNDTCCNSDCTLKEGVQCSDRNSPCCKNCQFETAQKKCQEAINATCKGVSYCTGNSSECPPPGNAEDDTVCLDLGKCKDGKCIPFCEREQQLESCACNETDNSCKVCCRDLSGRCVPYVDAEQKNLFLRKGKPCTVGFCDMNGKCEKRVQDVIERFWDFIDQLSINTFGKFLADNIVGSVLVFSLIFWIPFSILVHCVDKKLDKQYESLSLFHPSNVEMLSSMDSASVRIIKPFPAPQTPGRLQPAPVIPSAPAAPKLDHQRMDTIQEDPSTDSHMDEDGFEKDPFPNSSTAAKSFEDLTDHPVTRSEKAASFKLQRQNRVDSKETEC

Compound | formation of TNF-α-FL cleavage product (ADAM 17 activity) (ADAM 17) | ADAM 10 activity (ADAM 10 [1]) | ADAM 10 activity (amount of CD40L-FL cleavage product) (ADAM 10 [2]) | further results
CNC(=O)[C@H](Cc1c[nH]c2ccccc12)NC(=O)[C@@H](CC(=O)NO)CC(C)C [GM6001] | completely inhibited | – | – | –
CCCCCCCCCCCCCC(=O)O[C@@H]1[C@@H](C)[C@@]2(O)[C@@H](C=C(CO)C[C@]3(O)C(=O)C(C)=C[C@@H]23)[C@@H]2C(C)(C)[C@]12OC(C)=O [PMA, phorbol myristate acetate] | significantly lower; also recorded: significantly reduced | decline | – | –
C[N+](C)(C)CCOC(N)=O [carbachol] | – | activated | – | –
OC[C@H]1O[C@@](CO)(O[C@H]2O[C@H](CO)[C@@H](O)[C@H](O)[C@H]2O)[C@@H](O)[C@@H]1O [sucrose] | – | – | – | TNF-α-FL cleavage activity on addition of sucrose in the presence of PMA (ADAM 17; 450 mM sucrose with PMA): restored the activity
endothelin-1: known ligand for GPCRs (CSCSSLMDKECVYFCHLDIIW) | – | – | decreased | –
lysophosphatidic acid [LPA] | – | – | increased | –
